One molecule from patent EP2114888B1, “TRICYCLIC COMPOUNDS AND THEIR USE AS GLUCOCORTICOID RECEPTOR MODULATORS” (priority 2007, dated 2008) can be followed below.

Molecules are shown by their SMILES.

Assay [1] relates to TNFα. Put plainly: Ex vivo LPS-stimulated human whole blood, TNFα production. In kind it is cell-based. The settings on record: mean values. On the procedure: Venous blood from human donors was collected as 10 ml aliquots in tubes containing sodium heparin (BD Vacutainer from Becton Dickinson and Company, Franklin Lakes, NY). Blood was added to sterile polystyrene round bottom 96-well tissue culture plates (Corning Costar) at 100 µl/well, omitting the outside wells. Media (RPMI Medium 1640 with L-glutamine, Invitrogen Corporation, Carlsbad, CA) was added to the blood in 90 µl aliquots for a total volume of 190 µl. Outside wells were filled with 200 µl of media. Blood was placed in a humidified 37°C incubator with 5% CO2 while compounds were prepared (nearly 60 minutes).
Compounds were prepared from 10 mM stock solutions in dimethylsulfoxide (DMSO, Sigma-Aldrich). […] Final DMSO and ethanol concentrations in the assay were 0.1 % and 1.5%. The samples were gently triturated twice to mix and replaced in the incubator. LPS stock (E. coli serotype 0111:B4, Sigma-Aldrich), stored in aliquots of 100 µg/ml in RPMI at -20°C, was diluted 1/50 in RPMI to make a working stock solution. After 60 minutes of incubation, 10 µl of the prepared LPS working stock was added to the blood to a final concentration of 100 ng/ml, omitting wells to be used as negative control. The samples were again gently triturated and the plates incubated overnight for 22 hours. Following incubation, the blood was centrifuged at 1500 x g for 5 minutes and the plasma removed to either freeze at -20°C or assay for cytokine release.
IL-1β, IFNγ,IL-6, and TNFα protein levels were measured using Meso Scale assay kits (Meso Scale Discovery, Gaithersburg, MD). Reagents were allowed to come to room temperature. Meso Scale plates were blocked with 30 µl of human plasma/serum assay diluent with gentle shaking for 60 minutes at room temperature. Plates were washed 3x with wash buffer (PBS, Invitrogen Corporation, with 0.05% Tween-20, Sigma-Aldrich). Calibrators for standard curves were prepared in human plasma/serum assay diluent as a 1/5 serial dilution to achieve final concentrations ranging from 50000 pg/ml to 3.2 pg/ml. Samples and calibrators were added at 20 µl/well, then incubated at room temperature with gentle shaking for 90 minutes. Plates were again washed 3 times with wash buffer. Detection antibody was diluted in human plasma/serum antibody diluent to 1 µg/ml and added to the plate at 20 µl/well. Plates were incubated as before for 60 minutes and washed again. Read Buffer T (4x) was diluted 1:1 with mqH2O to 2 times concentration and 150 µl added to each well. Plates were analyzed on the SECTOR Imager 6000 (Meso Scale Discovery) to generate raw signal values.
Individual values were compared to positive and negative controls (vehicle treated blood with LPS and vehicle treated blood without LPS, respectively) to generate % inhibition. Triplicate values were averaged for each donor. The values for two donors were averaged (only one donor was used for IL-1β) and graphed using 4-parameter fit curves in the GraFit 5.0.11 application.

The test system of assay [2] is TNFα. Kind of assay: LPS-induced serum TNFα suppression, 28-day repeat dose mouse model. The class given is in vivo, Swiss Webster female mice. The protocol:
The compounds were weighed and suspended in a vehicle of 0.5% methylcellulose/0.025% tween 20 (Sigma-Aldrich, St. Louis, MO). Compound suspensions were homogenized using a Polytron PT-3100 tissue homogenizer to create a very fine suspension and were then sonicated for 10 minutes using a water bath sonicator. Aliquots of each suspension were made for daily dosing at 0.2 ml/dose. Swiss Webster female mice, 10-12 weeks old, 28-29 grams, (Taconic, Germantown, NY) were used in accordance with the guidelines of the Institutional Animal Care and Use Committee and in accordance with NIH guidelines on laboratory animal welfare. Mice were acclimated in the Pfizer animal facility for three to seven days prior to being utilized in a study. […] Each treatment group contained 5-10 mice. To establish a dosing regimen for the studies, a pilot pharmacodynamic time course experiment was conducted to quantify TNFα repression after a single ED80 dose.
Body weights were measured on the first and last day of each experiment. Blood samples were obtained after three weeks of dosing for a steady-state pharmacokinetic (PK) analysis. To assess compound effects on LPS-induced TNFα, all mice received an intraperitoneal injection of LPS (Salmonella typhosa, L-7895; Sigma-Aldrich, St. Louis,) 2.5 hr after the last dose on day 28. Mice were sacrificed 90 minutes after LPS administration. Serum samples were quantified for osteocalcin and TNFα using the multiplex assays (Linco Research, Inc, St. Charles, MO; Luminex 100, Austin, TX). Samples were diluted 1:20 and the assay was run according to manufacturer's instructions. The osteocalcin standard was purchased separately (Biomedical Technologies Inc., Stoughton, MA). Mice were fasted for 4 hours before serum was collected for TNFα, and osteocalcin levels. For each experiment, outliers were detected by calculating the number of standard deviations from the mean of the group. If the value being examined was more than 2.5 standard deviations from the mean, it was excluded from the rest of the calculations.
The individual mouse percent inhibition values were fit to a four-parameter logistic model using the dose mean for each group.
ED50 and ED80 values were obtained for the various endpoints using a four-parameter logistic fit. For compounds which were tested multiple times, ED50 and ED80 values were obtained using four-parameter logistic fits of the combined data from multiple experiments.

A further assay deals with IL-6. Kind of assay: IL-1β-stimulated IL-6 production in A549 lung epithelial cells. The class given is cell-based, Human. The settings on record: Homo sapiens, A549. The protocol:
Human A549 lung epithelial cells (American Type Culture Collection, Rockville, MD) were cultured in Kaighn's F-12K medium with penicillin-streptomycin (10 U/mL) and 10% heat-inactivated fetal bovine serum (all from Invitrogen, Grand Island, NY). A549 cells were plated at a density of 30,000 cells/well in 96-well plates and incubated overnight at 37°C and with 5% CO2. The cells were serum-starved by replacing the growth medium with serum-free Kaighn's F-12K medium with penicillin-streptomycin (10 U/mL) and, again, incubating overnight at 37°C and with 5% CO2. On the third day, the medium was replaced with fresh serum-free medium and the cells were incubated with or without compound (vehicle was DMSO at 0.1 % maximum concentration) for approximately 1 hour and then stimulated with 1 ng/mL recombinant human IL-1β (R&D Systems, Minneapolis, MN) for 20 hours at 37°C and with 5% CO2. Cell supernatants were collected for determination of IL-6 levels using MSD (Meso Scale Discovery, Gaithersburg, MD) 96-well Single Spot plates as per the manufacturer's instructions. Plates were read with an MSD Sector Imager 6000. […] Percent inhibition for each compound concentration, relative to these controls, was calculated using Excel (Microsoft, Redmond, WA). IC50 values were generated using GraFit 5.0 data analysis software (Erithacus Software Ltd., Surrey, UK).

The term inhibition denotes the change of the read-out against control, counted positive when it falls. The term ED50 denotes the dose that gives a 50% effect, or the effect in half of the subjects. As for `Cc1ncccc1NC(=O)c1ccc2c(c1)CC[C@@H]1C[C@@](O)(C(F)(F)F)CC[C@@]21Cc1ccccc1` [Example 1, (4βS,7R,8αR)-4β-benzyl-7-hydroxy-N-(2-methylpyridin-3-yl)-7-(trifluoromethyl)-4β,5,6,7,8,8α,9,10-octahydrophenanthrene-2-carboxamide], the inhibition at 0.000457247 µM in the assay with TNFα [1] (0.457247 nM) stood at 8.96%. The inhibition at 0.00137174 µM with TNFα [1] (1.371742 nM) amounted to 7.87%. For the same molecule, the inhibition at 0.00411523 µM in the assay on TNFα [1] (4.115226 nM) is -1.31%. In addition, the inhibition at 0.0123457 µM in the assay on TNFα [1] (12.34568 nM) was 9.42%. Moreover, the inhibition at 0.037037 µM in the assay on TNFα [1] (37.03704 nM) was 18.7%. Besides, the inhibition at 0.111111 µM in the assay on TNFα [1] (111.1111 nM) is 27.4%. The inhibition at 0.333333 µM in the assay on TNFα [1] (333.3333 nM) amounted to 36%. Further, the inhibition at 1 µM with TNFα [1] (1000 nM) is 38.1%. The molecule further came in with an ED50 in the assay on TNFα [2] (Mus musculus, 672 h, oral gavage, 28 days, LPS-induced serum TNFα) of 0.46 mg/kg. Moreover, in the assay on TNFα [2] (Mus musculus, 672 h, oral gavage, 28 days, LPS-induced serum TNFα, read-out: TNFα Suppression (ED80 dose)), the ED80 came to 1.82 mg/kg. Moreover, in the assay with TNFα [2] (mice), the “Serum TNFα EAUC50 (AUC 0-4 hr)” value amounted to 0.22 µg·h/mL and the “Serum TNFα EAUC80 (AUC 0-4 hr)” value amounted to 0.33 µg·h/mL. In addition, the inhibition with IL-6 turned out to be 86.1%.
